This note sets out measurements from patent US6653300B2, “Pyrazole compounds useful as protein kinase inhibitors” (Vertex Pharmaceuticals Incorporated, priority 2000, dated 2003).

One series concerns the target T1, GSK-3β (AA 1-420) (Homo sapiens, UniProt P49841).
T1 construct: GSK-3β (AA 1-420)
In words: Ki determination for the inhibition of GSK-3 (coupled enzyme system). The format is biochemical. The following applies: 20 μM ATP, 20 nM GSK-3β, 30° C. Summed up:
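GSK-3β (AA 1-420, 20 nM) was run in a pyruvate kinase/LDH-coupled NADH assay in 100 mM HEPES pH 7.5, 10 mM MgCl2, 25 mM NaCl, 1 mM DTT, 1.5% DMSO, with 300 μM phosphopeptide substrate. Compound (0.002–30 μM) was preincubated 10 min at 30° C, then 20 μM ATP was added.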

The next series addresses T2, Aurora-2 (Homo sapiens, UniProt O14965).
T2 sequence (O14965 1-403): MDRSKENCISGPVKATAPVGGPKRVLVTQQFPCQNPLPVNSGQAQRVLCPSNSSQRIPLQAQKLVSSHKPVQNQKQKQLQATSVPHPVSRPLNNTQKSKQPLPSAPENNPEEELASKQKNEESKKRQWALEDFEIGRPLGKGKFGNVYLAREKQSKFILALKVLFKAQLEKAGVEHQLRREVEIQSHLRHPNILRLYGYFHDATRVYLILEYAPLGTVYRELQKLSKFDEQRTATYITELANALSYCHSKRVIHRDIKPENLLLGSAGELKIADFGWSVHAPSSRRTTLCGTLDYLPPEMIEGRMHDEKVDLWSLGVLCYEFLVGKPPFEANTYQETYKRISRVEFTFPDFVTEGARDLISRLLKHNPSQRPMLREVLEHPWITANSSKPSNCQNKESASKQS
In words: Ki determination for the inhibition of Aurora-2 (coupled enzyme assay). Format: biochemical. The conditions noted are these: 70 nM Aurora-2, 30° C. The method, then:
Compounds were screened in the following manner for their ability to inhibit Aurora-2 using a standard coupled enzyme assay (Fox et al (1998) Protein Sci 7, 2249).
To an assay stock buffer solution containing 0.1M HEPES 7.5, 10 mM MgCl2, 1 mM DTT, 25 mM NaCl, 2.5 mM phosphoenolpyruvate, […], 30 mg/ml pyruvate kinase, 10 mg/ml lactate dehydrogenase, […], and 800 μM peptide (LRRASLG, American Peptide, Sunnyvale, Calif.) was added a DMSO solution of a compound of the present invention to a final concentration of 30 μM. The resulting mixture was incubated at 30° C. for 10 min. The reaction was initiated by the addition of 10 μL of Aurora-2 stock solution to give a final concentration of 70 nM in the assay. The rates of reaction were obtained by monitoring absorbance at 340 nm over a 5 minute read time at 30° C. using a BioRad Ultramark plate reader (Hercules, Calif.). The Ki values were determined from the rate data as a function of inhibitor concentration.

By melting point is commonly meant the temperature of the solid-liquid transition. Usually Ki stands for the dissociation constant of the complex between target and ligand, obtained from inhibition or displacement.

Structures are written as SMILES. Several values for one entry are separate records, joined by “and”; a condition that tells them apart may be missing. Equal values may be shown once. Where only a bound is given, the exact number is not on record here.

T1 sequence (P49841 whole entry, the tested form may be a part): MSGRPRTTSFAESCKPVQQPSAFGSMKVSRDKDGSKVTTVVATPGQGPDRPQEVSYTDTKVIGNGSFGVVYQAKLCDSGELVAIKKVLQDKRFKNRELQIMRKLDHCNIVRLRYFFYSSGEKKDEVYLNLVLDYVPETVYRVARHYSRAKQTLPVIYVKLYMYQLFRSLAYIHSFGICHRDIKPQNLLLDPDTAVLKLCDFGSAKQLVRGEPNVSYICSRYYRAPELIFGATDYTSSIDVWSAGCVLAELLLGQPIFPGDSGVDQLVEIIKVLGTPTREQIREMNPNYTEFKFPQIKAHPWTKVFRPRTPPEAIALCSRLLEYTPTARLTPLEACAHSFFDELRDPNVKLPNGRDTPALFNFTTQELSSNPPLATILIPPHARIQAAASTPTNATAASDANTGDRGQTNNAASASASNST

`CS(=O)(=O)Nc1ccc(Sc2nc(Nc3cc(C4CC4)[nH]n3)c3ccccc3n2)cc1` [IIa-61, (5-Cycloprpyl-2H-pyrazol-3-yl)-[2-(4-methylsulfonylamino-phenylsulfanyl)-quinazolin-4-yl]-amine] yielded a melting point of 235 to 238 °C. Also, the Ki at GSK-3β (AA 1-420) was less than 100 nM. The same molecule had a Ki on Aurora-2 of less than 100 nM.
The molecule `Cc1cc(Nc2nc(Sc3ccc(N)cc3)nc3ccccc23)n[nH]1` [IIa-62, [2-(4-Amino-phenylsulfanyl)-quinazolin-4-yl]-(5-methyl-2H-pyrazol-3-yl)-amine] yielded a melting point greater than 300 °C. At GSK-3β (AA 1-420), this molecule registered a Ki of 100 to 1000 nM. This molecule also showed a Ki at Aurora-2 of less than 100 nM.
`Cc1cc(Nc2nc(Sc3ccc(NC(=O)CCCN4CCOCC4)cc3)nc3ccccc23)n[nH]1` [IIa-64, (5-Methyl-2H-pyrazol-3-yl)-{2-[4-(4-morpholin-4-yl-butyrylamino)-phenylsulfanyl]-quinazolin-4-yl}-amine] had a melting point of 240 to 243 °C. The molecule further yielded a Ki on GSK-3β (AA 1-420) of 1000 to 7000 nM. Besides, the inhibitory constant (Ki) at Aurora-2 is less than 100 nM.
Turning to `COc1cccc2c(Nc3cc(C)[nH]n3)nc(Sc3ccc(NS(C)(=O)=O)cc3)nc12` [IIa-66, [8-Methoxy-2-(4-methylsulfonylamino-phenylsulfanyl)-quinazolin-4-yl]-(5-methyl-2H-pyrazol-3-yl)-amine], the melting point lay in the range of 275 to 277 °C. Besides, the Ki at GSK-3β (AA 1-420) lay in the range of 100 to 1000 nM. For the same molecule, the Ki on Aurora-2 was less than 100 nM.
Taken in the same sequence, the figures for `Cc1cc(Nc2nc(Sc3ccc(C(=O)NCCN(C)C)cc3)nc3ccccc23)n[nH]1` [IIa-67, {2-[4-(2-Dimethylamino-ethylcarbamoyl)-phenylsulfanyl]-quinazolin-4-yl}-(5-methyl-2H-pyrazol-3-yl)-amine] were 192 to 193 °C, 1000 to 7000 nM and 100 to 1000 nM.
Taken in the same sequence, the figures for `Cc1cc(Nc2nc(Sc3ccc(NS(C)(=O)=O)cc3)nc3c(O)cccc23)n[nH]1` [IIa-69, [8-Hydroxy-2-(4-methylsulfonylamino-phenylsulfanyl)-quinazolin-4-yl]-(5-methyl-2H-pyrazol-3-yl)-amine] were 291 to 293 °C, 100 to 1000 nM and less than 100 nM.
In the same order, the values of `COc1cccc2c(Nc3cc(C4CC4)[nH]n3)nc(Sc3ccc(NC(C)=O)cc3)nc12` [IIa-72, [2-(4-Acetamido-phenylsulfanyl)-8-methoxy-quinazolin-4-yl]-(5-cyclopropyl-2H-pyrazol-3-yl)-amine] are 265 to 268 °C, 1000 to 7000 nM and less than 100 nM.
On to `Cc1cc(Nc2nc(Sc3ccc(NC(=O)CN(C)C(=O)OC(C)(C)C)cc3)nc3ccccc23)n[nH]1` [IIa-76, (2-{4-[2-(tert-Butoxycarbonyl-methyl-amino)-acetylamino]-phenylsulfanyl}-quinazolin-4-yl)-(5-methyl-2H-pyrazol-3-yl)-amine], for which the melting point is 228 to 229 °C (dec.). Moreover, the Ki on GSK-3β (AA 1-420) lay within 1000 to 7000 nM. Besides, the Ki on Aurora-2 was less than 100 nM.
Taken in the same sequence, the figures for `COc1ccc(Oc2nc(Nc3cc(C)[nH]n3)c3ccccc3n2)cc1OC` [IIb-7, [2-(3,4-Dimethoxyphenoxy)-quinazolin-4-yl]-(5-methyl-2N-pyrazol-3-yl)-amine] were 277 to 278 °C, 100 to 1000 nM and less than 100 nM.
Taken in the same sequence, the figures for `Cc1cc(Nc2nc(Oc3ccc4c(c3)OCO4)nc3ccccc23)n[nH]1` [IIb-8, [2-(Benzo[1,3]dioxol-5-yloxy)-quinazolin-4-yl]-(5-methyl-2H-pyrazol-3-yl)-amine] were 296 to 299 °C (dec.), less than 100 nM and less than 100 nM.
In the same order, the values of `Cc1cc(Nc2nc(NCc3ccccc3)nc3ccccc23)n[nH]1` [IIc-5, (2-Benzylamino-quinazolin-4-yl)-(5-methyl-2H-pyrazol-3-yl)-amine] are 225 to 227 °C, 100 to 1000 nM and less than 100 nM.
As for `Cc1cc(Nc2nc(NC3CCCCC3)nc3ccccc23)n[nH]1` [IIc-6, (2-Cyclohexylamino-quinazolin-4-yl)-(5-methyl-2H-pyrazol-3-yl)-amine], the melting point is 280 °C (dec.). Besides, at GSK-3β (AA 1-420), the Ki was < 100 nM and 100 to 1000 nM. For the same molecule, the inhibition constant (Ki) at Aurora-2 was less than 100 nM.
For `Cc1cc(Nc2nc(Nc3ccc4c(c3)OCCO4)nc3ccccc23)n[nH]1` [IIc-7, [2-(2,3-Dihydrobenzo[1,4]dioxin-6-ylamino)-quinazolin-4-yl]-(5-methyl-2H-pyrazol-3-yl)-amine], the melting point was greater than 250 °C. On GSK-3β (AA 1-420), this molecule registered a Ki of 100 to 1000 nM. At Aurora-2, this molecule yielded a Ki of less than 100 nM.
In the same order, the values of `Cc1cc(Nc2nc(Nc3ccc(Cl)cc3)nc3ccccc23)n[nH]1` [IIc-12, [2-(4-Chlorophenylamino)-quinazolin-4-yl]-(5-methyl-2H-pyrazol-3-yl)-amine] are greater than 250 °C, less than 100 nM and less than 100 nM.
`Cc1cc(Nc2nc(Nc3ccccc3CCO)nc3ccccc23)n[nH]1` [IIc-14, {2-[2-(2-Hydroxyethyl)phenylamino]-quinazolin-4-yl}-(5-methyl-2H-pyrazol-3-yl)-amine]: the melting point turned out to be 222 °C. The Ki on GSK-3β (AA 1-420) lay in the range of 100 to 1000 nM. Further, on Aurora-2, the Ki lay in the range of 100 to 1000 nM.
With `Cc1cc(Nc2nc(Nc3cccc(CO)c3)nc3ccccc23)n[nH]1` [IIc-16, [2-(3-Hydroxymethylphenylamino)-quinazolin-4-yl]-(5-methyl-2H-pyrazol-3-yl)-amine], the melting point is greater than 250 °C. On GSK-3β (AA 1-420), this molecule registered a Ki of 100 to 1000 nM. The same molecule yielded a Ki on Aurora-2 of less than 100 nM.
Regarding `Cc1cc(Nc2nc(Nc3cccc(O)c3)nc3ccccc23)n[nH]1` [IIc-17, [2-(3-Hydroxyphenylamino)-quinazolin-4-yl]-(5-methyl-2H-pyrazol-3-yl)-amine], the melting point is greater than 250 °C. On GSK-3β (AA 1-420), this molecule came in with a Ki of 100 to 1000 nM. Also, on Aurora-2, the Ki was less than 100 nM.
In the same order, the values of `COc1ccc(Nc2nc(Nc3cc(C4CC4)[nH]n3)c3ccccc3n2)cn1` [IIc-20, (5-Cyclopropyl-2H-pyrazol-3-yl)-[2-(6-methoxypyridin-3-ylamino)-quinazolin-4-yl]-amine] are 120 °C, less than 100 nM and less than 100 nM.
In the same order, the values of `CCCc1ccc(Nc2nc(Nc3cc(C4CC4)n[nH]3)c3ccccc3n2)cc1` [IIc-26, (5-Cyclopropyl-2H-pyrazol-3-yl)-[2-(4-propylphenylamino)-quinazolin-4-yl]-amine] are 255 to 256 °C, 100 to 1000 nM and less than 100 nM.
Molecule `c1ccc2c(Nc3cc(C4CC4)[nH]n3)nc(NCCC3CCCCC3)nc2c1` [IIc-29, [2-(2-Cyclohexylethylamino)-quinazolin-4-yl]-(5-cyclopropyl-2H-pyrazol-3-yl)-amine] gave a melting point greater than 250 °C. This molecule showed a Ki at GSK-3β (AA 1-420) of 100 to 1000 nM. Further, the Ki at Aurora-2 is less than 100 nM.
In the same order, the values of `O=C(O)COc1ccc(Nc2nc(Nc3cc(C4CC4)[nH]n3)c3ccccc3n2)cc1` [IIc-30, [2-(4-Carboxymethoxyphenylamino)-quinazolin-4-yl]-(5-cyclopropyl-2H-pyrazol-3-yl)-amine] are greater than 250 °C, less than 100 nM and less than 100 nM.
